We go through 34 compounds from a melting point compilation (Tetko et al.; mined from patent text by program, amines drawn as free bases though some values may be those of a salt).

As usually defined, the melting point is the temperature of the solid-liquid transition. The compound `CCc1[nH]c(=S)[nH]c1-c1cc(C(C)(C)C)c(O)c(C(C)(C)C)c1` yielded a melting point of 279 to 281 °C.

Regarding `CC(C)(C)OC(=O)C(=O)C=Cc1cccnc1`, the melting point lay in the range of 51 to 52 °C.

`CS(=O)(=O)N1CCC(c2nc3cc(-c4ccc(-n5cnnn5)cc4F)ccc3o2)CC1` showed a melting point of 209 to 212 °C.

For the compound `O=C1OCCN1c1ccc(NCCO)c([N+](=O)[O-])c1`, the melting point was 184 °C.

Take `CC(=O)c1cc(-c2ccccc2)c(=O)n2c1-c1ccsc1CC2`: the melting point was 181 to 182 °C.

`Cc1ccccc1C(=O)Nc1ccc(C(=O)Cl)cc1` came in with a melting point of 135 to 141 °C.

Take `O=C(O)COc1cccc2c1CCC(Cn1cc(C(c3ccccc3)c3ccccc3)ccc1=O)C2` (centres undefined): the melting point was in the range of 162 to 163 °C.

`COc1cc(CO)c(-c2cc3c(cc2CO)OCO3)c(OC)c1OC` gave a melting point of 123 to 124 °C.

Take `Cc1cc(Br)ccc1S(N)(=O)=O`: the melting point is 179 to 180 °C.

With `CN(C)CCC1Cc2ccccc2C(C)(O)c2ccccc21` (centres undefined), the melting point came out at 162 °C.

As for `O=C(O)c1scc(Cl)c1C(=O)Nc1ccccc1`, the melting point was in the range of 208 to 210 °C.

On to `CC(C)c1nn(-c2ccc(C(F)(F)F)cn2)cc1CCCCOc1cccc(OC(C)(C)C(=O)O)c1`, for which the melting point fell in the range of 81 to 82 °C.

`c1cc2[nH]ncc2cc1NC1CCN(CC2CCCCC2)CC1` showed a melting point of 179 to 180 °C.

The compound `C=CS(=O)(=O)CCC(F)(F)C(F)(F)C(F)(F)C(F)(F)C(F)(F)C(F)(F)F` gave a melting point of 58 to 60 °C.

Turning to `CCN(CC)Cc1cc(C(=O)c2ccccc2)cc(C2CCCCC2)c1O`, the melting point fell in the range of 106 to 107 °C.

Compound `CSC1=NN=C(c2ccc([N+](=O)[O-])cc2)c2cc3c(cc2C1)OCO3` had a melting point of 280 to 281 °C.

Turning to `Cn1cncc1CCNC(=O)c1[nH]c2ccc(Cl)cc2c1S(=O)(=O)c1ccccc1`, the melting point was in the range of 257 to 258 °C.

Compound `Cc1c(C)c(C)c2c(c1C)CCCC2` yielded a melting point of 81.5 to 82 °C.

`CCc1ccc(C=C2CCCN(c3nc(C)c(C(=O)NCc4ccccc4)s3)C2=O)s1` gave a melting point of 171 to 172 °C.

For the compound `N#Cc1cc(O)c(O)c([N+](=O)[O-])c1`, the melting point lay within 175 to 178 °C.

Compound `O=C1OC(=Cc2ccc3ccccc3c2)C(=O)C(c2ccc(Cl)cc2)=C1O` had a melting point of 274 to 275 °C.

`CCS(=O)(=O)N[C@H](C(=O)NCCc1ccc(OCc2ccc(Cl)s2)c(OC)c1)C(C)C` returned a melting point of 124 to 127 °C.

Compound `OCCCCCCCCN1CCC(C(O)(c2ccc(F)cc2)c2ccc(F)cc2)CC1` registered a melting point of 124 to 125 °C.

In turn, `CCCCc1nc(NC(=O)Nc2ccccc2)[nH]c(=O)c1Cc1ccc(-c2ccccc2C(=O)OC)cc1` came in with a melting point of 217 to 219 °C.

Regarding `Nc1cc(N)c(SCCO)cc1SCCO`, the melting point came to 144 °C.

In turn, `COc1ccc(-c2[nH]nc3c2C(=O)c2c(NC(=O)Cc4ccc(N)cc4)cccc2-3)cc1` had a melting point of 283 °C.

As to `Cc1cccc(OCC(=O)N[C@@H](Cc2ccccc2)C(=O)CSCc2ccco2)c1`, the melting point lay in the range of 76 to 78 °C.

`CC(C)c1nn(-c2ccccc2)c(-c2ccc(F)cc2)c1C=O` yielded a melting point of 110 to 112 °C.

As for `CC(C)(C)OC(=O)N1CC(CC(=O)CC(=O)OCc2ccc([N+](=O)[O-])cc2)C2NC(=O)C21` (centres undefined), the melting point was in the range of 107 to 110 °C.

Take `C=C(CN1C(=O)c2ccccc2C1=O)c1ccccc1`: the melting point lay within 118 to 121 °C.

With `CCCn1nc(C(C)C)c(C(=O)O)c1Cc1ccc(-c2ccccc2-c2nnn(C(c3ccccc3)(c3ccccc3)c3ccccc3)n2)cc1`, the melting point was in the range of 136 to 139 °C.

Compound `Cc1nc2ccccc2c(=O)o1` returned a melting point of 79 to 81 °C.

`O=c1c(CCCc2nc3ccccc3s2)cc2cccnc2n1-c1cccc([N+](=O)[O-])c1` displayed a melting point of 185 to 186 °C.

The compound `CC(=O)Oc1ccccc1C(=O)NC(Cl)C(Cl)(Cl)Cl` (centres undefined) registered a melting point of 88 to 90 °C.
